According to patent publication US8729084B2, “Benzofuranyl analogues as GPR119 modulators” (Bristol-Myers Squibb Company, priority 2010, dated 2014):

What follows are molecules tested against T1, chimeric human/mouse GPR119 (Homo sapiens, UniProt Q8TDV5, A235T/C313R/C323Y/E253K/F304I/F307L/G211A/G245S/H255C/K284R/L224V/L258Q/L288Q/L301F/P218V/P318T/Q252H/R262K/S214P/S219N/S228A/S309P/S322A/T217S/T239S/V227I/V300F) (assay: Tet-inducible cAMP assay (cAMP accumulation, HTRF)). Conditions: not given.
T1 construct: the first 198 amino acids of human GPR119; the C-terminal 137 amino acids of the mouse receptor; expressed in transfected cells
T1 sequence (Q8TDV5 with tags, fused parts or gaps G211A/S214P/T217S/P218V/S219N/L224V/V227I/S228A/A235T/T239S/G245S/Q252H/E253K/H255C/L258Q/R262K/K284R/L288Q/V300F/L301F/F304I/F307L/S309P/C313R/P318T/S322A/C323Y): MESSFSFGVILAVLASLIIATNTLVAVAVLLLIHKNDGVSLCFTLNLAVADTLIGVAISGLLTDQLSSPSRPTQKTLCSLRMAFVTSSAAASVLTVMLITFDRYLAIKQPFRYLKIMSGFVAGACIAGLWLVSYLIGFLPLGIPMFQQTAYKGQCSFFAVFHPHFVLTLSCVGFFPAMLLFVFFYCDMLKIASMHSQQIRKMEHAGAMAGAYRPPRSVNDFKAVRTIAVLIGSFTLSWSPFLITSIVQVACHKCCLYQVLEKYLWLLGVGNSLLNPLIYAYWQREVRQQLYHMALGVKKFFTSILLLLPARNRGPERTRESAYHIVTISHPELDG
Assay type: cell-based
Procedure: The in vitro modulation of recombinant human GPR119 was determined as follows.
A human-mouse chimeric GPR119 expression construct encoding 3 copies of the FLAG epitope tag, the first 198 amino acids of human GPR119 and the C-terminal 137 amino acids of the mouse receptor was cloned into a tetracycline inducible vector pcDNA5/FRT/TO (Invitrogen #V6520-20), which includes a hygromycin-resistance marker. Tightly controlled receptor expression was achieved by stable integration of this construct into the genome of a specific host cell line, Flp-In-T-Rex-HEK293, expressing the tetracycline repressor (Invitrogen). Once a stable hygromycin-resistant cell line was generated, the cells were maintained at 37° C. in a humidified 5% CO2 atmosphere in culture medium consisting of Dulbecco's modified Eagle's medium (DMEM; Invitrogen #11960) supplemented with 2 mM L-glutamine, 10% fetal bovine serum, 200 μg/ml hygromycin B, and 15 μg/ml blasticidin.
Forty-eight hours prior to the cAMP accumulation assay, cells stably expressing the chimeric human/mouse GPR119 construct were seeded at a density of 4×10^3 cells/well in 384 well poly-D-lysine coated solid white plates (BD #35-6661) and grown at 37° C. in a humidified 5% CO2 atmosphere in culture medium supplemented with 1 μg/ml tetracycline to induce expression of the receptor. On the day of the assay, medium was removed and cells were incubated for 50 min. at 37° C. in a humidified 5% CO2 atmosphere in 20 μl/well of assay buffer (phosphate-buffered saline with Ca^2+ and Mg^2+, 12 mM glucose, 0.1 mM isobutyl-methyl-xanthine, 0.1% fatty-acid free bovine serum albumin) with the desired concentration of compound added from a concentrated stock dissolved in dimethyl sulfoxide (DMSO) to give a final concentration of 1% DMSO in the assay. cAMP accumulation was measured using the CisBio homogeneous time resolved fluorescence (HTRF) assay kit (#62AM2PEC) following the manufacturer's protocol. Briefly, 10 μl each of the cAMP-HTRF fluorescence detection reagents were added to each well, and the samples were incubated for 40 min. at room temperature. Fluorescence was excited at 320 nm and measured at 665 and 620 nm using the Envision instrument (Perkin Elmer), the fluorescence ratio of 665/620 was calculated and converted to nanomolar concentrations of cAMP in each well by interpolation from a cAMP standard curve. The concentration-response curves and EC50 values were calculated with a four parameter logistic curve fit equation utilizing Excel/XLfit software (Microsoft and IDBS). The EC50 value was calculated as the concentration of agonist which increased the cAMP concentration to a value halfway between the baseline and the maximum.
Compounds of the present invention were tested in the Tet-inducible cAMP assay described immediately above and the results shown in Table 2 below were obtained.

Structure (SMILES) | EC50 [µM]
CCCc1cnc(N2CCC(C3Cc4cc(C5=CCN(S(=O)(=O)CCC)CC5)cc(F)c4O3)CC2)nc1 (racemic) [Example 5, (±)-2-(4-(7-Fluoro-5-(1-(propylsulfonyl)-1,2,3,6-tetrahydropyridin-4-yl)-2,3-dihydrobenzofuran-2-yl)piperidin-1-yl)-5-propylpyrimidine] | 0.0618
CCCc1cnc(N2CCC(C3Cc4cc(C5=CCN(S(=O)(=O)CCCCO)CC5)cc(F)c4O3)CC2)nc1 (stereo not drawn) [Example 4, 4-(4-(7-Fluoro-2-(1-(5-propylpyrimidin-2-yl)piperidin-4-yl)-2,3-dihydrobenzofuran-5-yl)-5,6-dihydropyridin-1(2H)-ylsulfonyl)butan-1-ol] | 0.168
CCCc1cnc(N2CCC(C3Cc4cc(N5CCN(S(=O)(=O)CCC)CC5)ccc4O3)CC2)nc1 (stereo not drawn) [Example 9, 5-Propyl-2-(4-(5-(4-(propylsulfonyl)piperazin-1-yl)-2,3-dihydrobenzofuran-2-yl)piperidin-1-yl)pyrimidine] | 1.06
CCCS(=O)(=O)N1CC=C(c2ccc3c(c2)CC(C2CCN(C(=O)OC4CCCCC4)CC2)O3)CC1 (stereo not drawn) [Example 44] | 0.0097

Same assay, conditions: Flp-In-T-Rex-HEK293 cells, tetracycline-induced receptor expression; cAMP accumulation after 50 min at 37° C.; read-out: GPR119 EC50

EC50 [µM] | Structure (SMILES)
0.0089 | CC1(C2CCN(c3ncc(C4CC4)cn3)CC2)Cc2cc(C3=CCN(S(=O)(=O)CCCCO)CC3)ccc2O1 (stereo not drawn) [Example 11, 4-(4-(2-(1-(5-Cyclopropylpyrimidin-2-yl)piperidin-4-yl)-2-methyl-2,3-dihydrobenzofuran-5-yl)-5,6-dihydropyridin-1(2H)-ylsulfonyl)butan-1-ol]
2.43 | CCCS(=O)(=O)N1CCC(C2Cc3cc(C4=CCN(S(C)(=O)=O)CC4)ccc3O2)CC1 (stereo not drawn) [Example 21]
0.0031 | CCCS(=O)(=O)N1CC=C(c2cc(F)c3c(c2)CC(C2CCN(c4ncc(Cl)cn4)CC2)O3)CC1 (stereo not drawn) [Example 39]
0.0034 | CC(C)CS(=O)(=O)N1CC=C(c2cc(F)c3c(c2)CC(C2CCN(c4ncc(Cl)cn4)CC2)O3)CC1 (stereo not drawn) [Example 40]
0.0827 | CCCS(=O)(=O)N1CC=C(c2ccc3c(c2)CC(C2CCN(c4ccc(Cl)cn4)CC2)O3)CC1 (stereo not drawn) [Example 41]
